Data from patent USRE45471E1, “Pharmaceutical composition or combination drug” (Nanocarrier Co., Ltd., priority 2008, dated 2015).
Where a name gives a salt, the structure may show the parent alone.

System: CDDP-resistant human lung cancer MOR/CPR cells
Assay: In vitro cell growth inhibitory effect (WST method) on CDDP-resistant human lung cancer MOR/CPR cells
Type: cell-based
Details: gemcitabine hydrochloride alone, estimated
Description: The GI50 value in the case of gemcitabine hydrochloride alone was estimated to be about 10 μg/mL.
The cisplatin coordination compound obtained in Example 1 was prepared as a mannitol solution having a final concentration of 5% so as to contain 2.5 mg/mL in terms of CDDP. […] Furthermore, the concentrations or dosages of the cis-platin coordination compound are all indicated as the concentrations or dosages in terms of CDDP.

With `Nc1ccn([C@@H]2O[C@H](CO)[C@@H](O)C2(F)F)c(=O)n1` [gemcitabine hydrochloride, Gemcitabine hydrochloride] the GI50 was ~10 µg/mL.
